PubChem BioAssay AID1963846 (Molecular Pharmacology Branch, DTP, NCI, 2024)

Tested on: 454973-116-R2-J3-PDC complex spheroid viability
Assay: Anticancer human tumor 454973-116-R2-J3-PDC patient-derived pancreatic carcinoma cell line growth inhibition [POLQ]
Settings: for IC50: curve of first compound; for viability, T/C: stronger effect = lower value
In short: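 Three-cell-type spheroids modelling solid tumor plus stroma served as the readout system; POL inhibitors were tested individually and in combination, concentration ranges set by clinical Cmax where known.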

[1] = second compound 0.0316 µM, first compound 0.0316 µM
[2] = second compound 0.0316 µM, first compound 0.1 µM
[3] = second compound 0.0316 µM, first compound 0.316 µM
[4] = second compound 0.0316 µM, first compound 1 µM
[5] = second compound 0.0316 µM, first compound 3.16 µM
[6] = second compound 0.0316 µM, first compound 10 µM
[7] = second compound 0.1 µM, first compound 0.0316 µM
[8] = second compound 0.1 µM, first compound 0.1 µM
[9] = second compound 0.1 µM, first compound 0.316 µM
[10] = second compound 0.1 µM, first compound 1 µM
[11] = second compound 0.1 µM, first compound 3.16 µM
[12] = second compound 0.1 µM, first compound 10 µM
[13] = second compound 0.316 µM, first compound 0.0316 µM
[14] = second compound 0.316 µM, first compound 0.1 µM
[15] = second compound 0.316 µM, first compound 0.316 µM
[16] = second compound 0.316 µM, first compound 1 µM
[17] = second compound 0.316 µM, first compound 3.16 µM
[18] = second compound 0.316 µM, first compound 10 µM
[19] = second compound 1 µM, first compound 0.0316 µM
[20] = second compound 1 µM, first compound 0.1 µM
[21] = second compound 1 µM, first compound 0.316 µM
[22] = second compound 1 µM, first compound 1 µM
[23] = second compound 1 µM, first compound 3.16 µM
[24] = second compound 1 µM, first compound 10 µM
[25] = second compound 3.16 µM, first compound 0.0316 µM
[26] = second compound 3.16 µM, first compound 0.1 µM
[27] = second compound 3.16 µM, first compound 0.316 µM
[28] = second compound 3.16 µM, first compound 1 µM
[29] = second compound 3.16 µM, first compound 3.16 µM
[30] = second compound 3.16 µM, first compound 10 µM
[31] = second compound 10 µM, first compound 0.0316 µM
[32] = second compound 10 µM, first compound 0.1 µM
[33] = second compound 10 µM, first compound 0.316 µM
[34] = second compound 10 µM, first compound 1 µM
[35] = second compound 10 µM, first compound 3.16 µM
[36] = second compound 10 µM, first compound 10 µM
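Note: spheroids exposed to drugs for seven days before measurement.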
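Throughout, for viability, T/C: percent viability relative to DMSO vehicle control wells taken as 100%.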

CCc1cc2c(N3CCc4c(cc(Cn5ccnc5)cc4-c4cn(C)nc4C(F)(F)F)C3=O)ccnc2c(OC)n1 + Nc1ccc(C#CCN(C(=O)Cc2ncc(C(F)(F)F)cc2C(F)(F)F)c2ccc(F)cc2)nn1 showed an IC50 (second compound 0.0316 µM) greater than 10 µM, an IC50 (second compound 0.1 µM) greater than 10 µM and an IC50 (second compound 0.316 µM) greater than 10 µM. For the same compound, the IC50 (second compound 1 µM) was greater than 10 µM, the IC50 (second compound 3.16 µM) was greater than 10 µM and the IC50 (second compound 10 µM) was greater than 10 µM. For the same compound, the viability, T/C [1] was 119%, the viability, T/C [2] was 91.5% and the viability, T/C [3] was 84.1%. It also gave a viability, T/C [4] of 78.7%, a viability, T/C [5] of 72.4% and a viability, T/C [6] of 63.3%. The viability, T/C [7] was 99%, the viability, T/C [8] was 88.2% and the viability, T/C [9] was 80.8%. For the same compound, the viability, T/C [10] was 84.6%, the viability, T/C [11] was 72.3% and the viability, T/C [12] was 62.6%. It also gave a viability, T/C [13] of 93%, a viability, T/C [14] of 95.1% and a viability, T/C [15] of 90.3%. For the same compound, the viability, T/C [16] was 72.6%, the viability, T/C [17] was 78% and the viability, T/C [18] was 55.8%. It also gave a viability, T/C [19] of 112%, a viability, T/C [20] of 92.3% and a viability, T/C [21] of 93.3%. The viability, T/C [22] was 76.5%, the viability, T/C [23] was 76.6% and the viability, T/C [24] was 58.1%. It also gave a viability, T/C [25] of 101%, a viability, T/C [26] of 99.2% and a viability, T/C [27] of 93.6%. For the same compound, the viability, T/C [28] was 82.4%, the viability, T/C [29] was 68.3% and the viability, T/C [30] was 60.7%. For the same compound, the viability, T/C [31] was 111%, the viability, T/C [32] was 114% and the viability, T/C [33] was 89.1%. The viability, T/C [34] was 84.7%, the viability, T/C [35] was 81.8% and the viability, T/C [36] was 58.5%.
Compound COc1cc2cc(C(=O)CCC(=O)O)sc2cc1OC + Nc1ccc(C#CCN(C(=O)Cc2ncc(C(F)(F)F)cc2C(F)(F)F)c2ccc(F)cc2)nn1 has an IC50 (second compound 0.0316 µM) greater than 10 µM, an IC50 (second compound 0.1 µM) greater than 10 µM and an IC50 (second compound 0.316 µM) greater than 10 µM. It also gave an IC50 (second compound 1 µM) greater than 10 µM, an IC50 (second compound 3.16 µM) greater than 10 µM and an IC50 (second compound 10 µM) greater than 10 µM. For the same compound, the viability, T/C [1] was 96.7%, the viability, T/C [2] was 101% and the viability, T/C [3] was 112%. It also gave a viability, T/C [4] of 101%, a viability, T/C [5] of 107% and a viability, T/C [6] of 98.9%. It also gave a viability, T/C [7] of 98.2%, a viability, T/C [8] of 103% and a viability, T/C [9] of 100%. The viability, T/C [10] was 105%, the viability, T/C [11] was 107% and the viability, T/C [12] was 104%. The viability, T/C [13] was 93.8%, the viability, T/C [14] was 101% and the viability, T/C [15] was 107%. It also gave a viability, T/C [16] of 104%, a viability, T/C [17] of 111% and a viability, T/C [18] of 94.3%. It also gave a viability, T/C [19] of 110%, a viability, T/C [20] of 103% and a viability, T/C [21] of 106%. It also gave a viability, T/C [22] of 122%, a viability, T/C [23] of 108% and a viability, T/C [24] of 99.2%. For the same compound, the viability, T/C [25] was 118%, the viability, T/C [26] was 110% and the viability, T/C [27] was 113%. The viability, T/C [28] was 109%, the viability, T/C [29] was 116% and the viability, T/C [30] was 107%. It also gave a viability, T/C [31] of 115%, a viability, T/C [32] of 114% and a viability, T/C [33] of 118%. The viability, T/C [34] was 117%, the viability, T/C [35] was 119% and the viability, T/C [36] was 105%.
Compound COc1ccc([C@@H](O)c2cc(-c3ncnc4cc(N5CCOCC5)ccc34)c(F)cc2Cl)nn1 + Nc1ccc(C#CCN(C(=O)Cc2ncc(C(F)(F)F)cc2C(F)(F)F)c2ccc(F)cc2)nn1 has an IC50 (second compound 0.0316 µM) greater than 10 µM, an IC50 (second compound 0.1 µM) greater than 10 µM and an IC50 (second compound 0.316 µM) greater than 10 µM. For the same compound, the IC50 (second compound 1 µM) was greater than 10 µM, the IC50 (second compound 3.16 µM) was greater than 10 µM and the IC50 (second compound 10 µM) was greater than 10 µM. The viability, T/C [1] was 107%, the viability, T/C [2] was 107% and the viability, T/C [3] was 96.9%. It also gave a viability, T/C [4] of 86.9%, a viability, T/C [5] of 66.3% and a viability, T/C [6] of 53.5%. It also gave a viability, T/C [7] of 106%, a viability, T/C [8] of 96.1% and a viability, T/C [9] of 108%. It also gave a viability, T/C [10] of 90.3%, a viability, T/C [11] of 69.2% and a viability, T/C [12] of 49.8%. The viability, T/C [13] was 107%, the viability, T/C [14] was 107% and the viability, T/C [15] was 102%. It also gave a viability, T/C [16] of 85.8%, a viability, T/C [17] of 73.9% and a viability, T/C [18] of 52.4%. For the same compound, the viability, T/C [19] was 107%, the viability, T/C [20] was 106% and the viability, T/C [21] was 104%. For the same compound, the viability, T/C [22] was 92.3%, the viability, T/C [23] was 79.4% and the viability, T/C [24] was 59.9%. For the same compound, the viability, T/C [25] was 102%, the viability, T/C [26] was 107% and the viability, T/C [27] was 116%. The viability, T/C [28] was 93.9%, the viability, T/C [29] was 68.5% and the viability, T/C [30] was 56.5%. The viability, T/C [31] was 120%, the viability, T/C [32] was 119% and the viability, T/C [33] was 118%. The viability, T/C [34] was 93.7%, the viability, T/C [35] was 80.3% and the viability, T/C [36] was 64.4%.
